According to patent publication US8323659B2, “Method for diagnosing and/or treating tumor” (Keio University, priority 2008, dated 2012):

Legend:
[1] = tested on: CD8+ cells from PBMC of healthy individuals positive for HLA-A24; experiment: Gamma interferon production by peptide-induced human CD8+ cells; assay type: cell-based; details: IL-2 and APC; for gamma interferon production capability: FIG. 5D
Experimental: (§1) First, blood was collected from two healthy individuals positive for HLA-A24, to which 1/10 volume of 4% sodium citrate was added, and was overlaid on Ficoll-Paque (Amersham Inc.) and centrifuged (1500 rpm, 20 min, room temperature). The fraction of monocytes (PBMC) separated in the interface was cultured for 6 days under the stimulation with 10 μg/mL of each peptide, from which CD8+ cells were isolated by the MACS method using antibody-coupled magnetic beads (Miltenyi Inc). In order to estimate cytotoxic activity of the isolated CD8+ cells, they were cocultured with human colon cancer cell line COLO320 (HLA-A24^+ SAGE^+ HERV-H ^+ Env^+) as the target cell at a mixing ratio of [CD8+ cell:COLO320 tumor cell=50:1] for 6 hours. The killed tumor cells were detected using Immunocyto Cytotoxity Detection Kit (MBL inc.), and tumor-specific toxicity rates were calculated according to the protocol attached to the kit. Results are plotted in the graph of FIG. 5A.
In order to evaluate the gamma interferon production capability, 1×10^6 of CD8+ cells were stimulated by 1 or 10 μg/mL of each peptide for 24 hours in the presence of IL-2 (100 U/mL, Peprotech Inc.) and APC (5×10^6 cells) which was obtained by collecting the PBMCs freshly from a healthy individual and then inactivating them with mitomycin C. Amounts of gamma interferon contained in the culture supernatants were measured by Cytometric Bead Array kit for human (BD Biosciences Inc.). Results are plotted in the graph of FIG. 5B.
The gamma interferon production capability was evaluated by stimulating CD8+ cells with 0.1, 1 or 10 μg/mL of each peptide in the presence of IL-2 and APC. The results are plotted in the graph of FIG. 5D.

[2] = tested on: human pancreatic tumor cell line Panc-1; experiment: Toxicity of peptide-induced CD8+ cells (HLA-A02 positive PBMC) against Panc-1; assay type: cell-based; details: two HLA-A02 positive healthy individuals; FIG. 5E
[3] = tested on: CD8+ cells of genetically modified mice expressing HLA-A24 (A24-Tg); experiment: Gamma interferon production by CD8+ cells of peptide-immunized HLA-A24 transgenic mice; assay type: cell-based, mouse; details: for gamma interferon producing activity at lower concentrations: peptide below 2 μg/mL, normalized to 10 μg/mL as 100%
Experimental: First, dendritic cell precursors were isolated from bone marrow cells of A24-Tg mice using LineagePanel Streptavidin Plus Magnetic Particles-DM (BD Biosciences Inc.) and cultured for 6 days in the presence of GM-CSF (10 ng/mL, Peprotech Inc.) to induce their differentiation. The dendritic cells thus obtained were cultured for 6 hours in the presence of each of the peptides having the sequences shown below (10 μg/mL, synthesized by Invitrogen Inc.), and then injected subcutaneously to genetically modified mice expressing HLA-A24 at 5×10^6 cells per mouse for immunization. In addition, SAGE which has been identified as a testicular tumor antigen and for which a HLA-A24-restricted peptide has been established, was used for a positive control experiment (Cancer Research 60:3848-3855, 2000), and dendritic cells not stimulated by a peptide were used as the negative control.
Spleen cells were collected from the mice one week after the immunization with each of the peptides, and were cultured under the stimulation by 10 μg/mL of the same peptide as used for immunization for 6 days, from which CD8+ cells were isolated by the MACS method using antibody-coupled magnetic beads from Miltenyi Inc . In order to produce cytokine at a higher level, the CD8+ cells (1×10^6) were further stimulated for 24 hours by 0.08 to 10 μg/mL of the same peptide in the presence of APC (1×10^7 cells) that was obtained by collecting the spleen cells freshly from a HLA-A24 expressing-genetically modified mouse and then inactivating the cells with mitomycin C. Amounts of gamma interferon contained in the culture supernatants were measured by Cytometric Bead Array kit for mouse (BD Biosciences Inc.).

[4] = tested on: PKH67-labeled CD8+ cells in SCID mice; experiment: In vivo proliferation of peptide-induced CD8+ cells in immunodeficiency mice; set-up: species or system mouse; details: FIG. 8; for content of CD8+ cells in vivo: SCID mice, peptide 100 μg per animal via tail vein, 5 days, spleen and peripheral blood, versus no peptide administered
Experimental: In the same method as described in Example 4, CD8+ cells were obtained by culturing PBMCs with the stimulation of HERV-H#1 (final concentration 10 μg/mL). The CD8+ cells for a control group were obtained by culturing under the stimulation by NY-ESO-1 peptide (SEQ ID NO: 23) in place of HERV-H#1 at the same concentration. The CD8+ cells thus obtained were fluorescence-labeled by mixing with a fluorescent dye PKH67 (Sigma Corp.) and incubating for 10 min.
The PKH67-labeled CD8+ cells (2×10^6 cells), PBMCs (2×10^7 cells) collected from the same healthy individual, and a peptide (HERV-H Env or NY-ESO-1 (control groups) at 100 μg per animal) were injected via the tail vein of immunodeficiency mice (the SCID mice, CLEA Japan Inc.). Spleen cells and peripheral blood cells were collected from the mice on 5 days after the administration, and the content of PKH67-labeled CD8+ cells was measured by flow cytometry (BD Inc.). Mice treated similarly except that no peptide was administered were used for a control experiment.

[5] = tested on: human colon cancer cell line COLO320; experiment: Toxicity of peptide-induced CD8+ cells (HLA-A24 positive PBMC) against COLO320; assay type: cell-based
Experimental: as §1
The toxicity against tumor cells was evaluated by setting the ratio of CD8+ cells:COLO320 tumor cells to 6.25:1, 12.5:1, 25:1 or 50:1. The results are plotted in the graph of FIG. 5C.

[6] = tested on: Clone F3 (Panc-1 cells in which the snail gene was forcibly expressed); experiment: Cell invasion capability of Clone F3 (matrigel Invasion Chamber); assay type: cell-based, human; details: F3 cells transfected with siRNA; matrigel-coated membrane, 4 hours; FIG. 3B
Text: (§2) First, 5×10^4 of F3 cells, as well as F3 cells (#1 to #4, Invitrogen Inc.) that had been cultured for 2 to 3 days after transfected with each of the 4 kinds of HERV-H env gene specific-siRNAs (shown below) by PEI complex method (Polyplus Inc.), were counted. The numbers of cells as plotted in the graph of FIG. 3A were taken as a standard of the growth rates.
Then, the recovered cells were placed on the upper surface of the Invasion Chamber (pore size 8 μm, BD Bioscience Inc.) whose membrane was coated with matrigel, and cultured for 4 hours (37° C., 5% CO2). After cells remaining on the upper surface of the membrane were removed completely, the cells invaded into the lower surface of the membrane were fixed and stained with Crystal Violet solution and counted under a microscope to evaluate the cell invasion capability.
(§3) For control experiments, F3 cells (Control) transfected with a control oligonucleotide from Invitrogen, F3 cells (siRNA-snail) transfected with snail gene specific-siRNA (SiRNA-snail #1) (shown below) and a Panc-1 cell line (Parent) were used.

[7] = tested on: Clone F3 (Panc-1 cells in which the snail gene was forcibly expressed); experiment: Cell growth of Clone F3 after siRNA transfection; assay type: cell-based, human; details: F3 cells cultured 2 to 3 days after siRNA transfection; in contrast to untreated cells and control siRNA; FIG. 3A
Experimental: First, snail cDNA (CDS 71-865, 795 bp) was amplified by PCR using the Panc-1 cells that had been stimulated with TGF-beta known as an EMT-inducing agent, and was inserted into the EcoR I-Xho I restriction sites of pcDNA3.1 (+) plasmid vector (Invitrogen Inc.) having a G418 resistance gene. The vector was introduced into the tumor cell lines by electroporation. The cells were cultured for 2 weeks and then drug-resistant cells were selected with G418 (2 mg/mL) and cloned.
In this example, the expression of HERV-H env gene was suppressed in Clone F3 and cell invasion capability and growth rate were measured.
as §2, §3

[8] = lower peptide concentration (0.1 μg/mL)
[9] = peptide concentrations equal to or higher than 1 μg/mL

SYLHHTINL (listed as Homo sapiens) [HERV-H#1]
gamma interferon production capability [1, 8]: still sufficient to induce gamma interferon production | gamma interferon production ([1]; peptide 10 μg/mL, 24 hours, FIG. 5B): significantly higher production than the other peptides | gamma interferon production capability [1, 9]: second best after NY-ESO-1 | toxicity against tumor cells (killed Panc-1) [2]: highest toxicity | TCR-binding affinity ([3]; inferred from the concentration dependence of gamma interferon production, P<0.001, t-test): significantly higher than the other peptides | gamma interferon producing activity at lower concentrations ([3]; FIG. 4B): maintained | content of CD8+ cells in vivo [4]: higher content of CD8+ cells | self-proliferation of the induced CD8+ cells ([4]; no peptide administered to the mice, versus CD8+ cells induced by NY-ESO-1 peptide): less active | proliferation activity of the induced CD8+ cells ([4]; peptides administered to the mice, versus CD8+ cells induced by NY-ESO-1 peptide): higher than that of the CD8+ cells induced by NY-ESO-1 peptide | toxicity against tumor cells (COLO320) ([5]; E:T ratio equal to or more than 25:1, FIG. 5C): highest toxicity | toxicity against tumor cells (killed COLO320) ([5]; two HLA-A24 positive healthy individuals, CD8+ cell:COLO320 = 50:1, 6 hours, FIG. 5A): highest

LLMWITQCF (listed as Homo sapiens) [NY-ESO-1, HLA-A24-restricted tumor antigen peptide clinically used in peptide vaccine treatments, reference compound]
gamma interferon production capability [1, 8]: significantly reduced | gamma interferon production capability [1, 9]: best production | content of CD8+ cells in vivo [4]: higher content of CD8+ cells

NYAEPPWPL (listed as Homo sapiens) [HERV-H#3]
gamma interferon producing activity at lower concentrations ([3]; FIG. 4B): significantly reduced

FYSLLLYSL (listed as Homo sapiens) [HERV-H#2]
amounts of gamma interferon produced (comparison among the HERV-H Env peptides) ([3]; peptide 0.08 to 10 μg/mL, FIG. 4B): highest activity | gamma interferon producing activity at lower concentrations ([3]; FIG. 4B): significantly reduced

siRNA-snail: snail gene specific-siRNA; sense GCGAGCUGCAGGACUCUAAdTdT (SEQ ID NO: 18), antisense SEQ ID NO: 19 (sense GCGAGCUGCAGGACUCUAATT; antisense UUAGAGUCCUGCAGCUCGCTT; dTdT overhangs, further chemistry not given here)
cell invasion capability [6]: significantly reduced | cell growth (numbers of cells) [7]: strongly suppressed
